Reference: the supplement of paper PMC11451515

Tested on: SEM cells
Assay: cell viability relative to DMSO control; higher = less cytotoxic
Settings: 48 h
Method in brief: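 Viability, reported as a per-plate percentage of DMSO wells with cell-free wells as background, came from CellTiter-Glo One luminescence. Reading took place after 48 h at 37°C. Before that, NOMO1 or SEM (500 cells/well) or P12-Ichikawa (1000 cells/well) leukemia cells, adapted for at least four passages in each medium, were seeded in 1536-well plates (5 μl) and pin-dosed with library compounds in DMSO, 47 μM to 0.79 nM over 11 threefold points.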

[1] = HPLM + 10% dialyzed FBS, 0.000781 µM
[2] = HPLM + 10% dialyzed FBS, 0.00234 µM
[3] = HPLM + 10% dialyzed FBS, 0.00702 µM
[4] = HPLM + 10% dialyzed FBS, 0.0211 µM
[5] = HPLM + 10% dialyzed FBS, 0.0632 µM
[6] = HPLM + 10% dialyzed FBS, 0.19 µM
[7] = HPLM + 10% dialyzed FBS, 0.569 µM
[8] = HPLM + 10% dialyzed FBS, 1.71 µM
[9] = HPLM + 10% dialyzed FBS, 5.12 µM
[10] = HPLM + 10% dialyzed FBS, 15.4 µM
[11] = HPLM + 10% dialyzed FBS, 46.1 µM
[12] = RPMI 5 mM glucose + 10% FBS, 0.000781 µM
[13] = RPMI 5 mM glucose + 10% FBS, 0.00234 µM
[14] = RPMI 5 mM glucose + 10% FBS, 0.00702 µM
[15] = RPMI 5 mM glucose + 10% FBS, 0.0211 µM
[16] = RPMI 5 mM glucose + 10% FBS, 0.0632 µM
[17] = RPMI 5 mM glucose + 10% FBS, 0.19 µM
[18] = RPMI 5 mM glucose + 10% FBS, 0.569 µM
[19] = RPMI 5 mM glucose + 10% FBS, 1.71 µM
[20] = RPMI 5 mM glucose + 10% FBS, 5.12 µM
[21] = RPMI 5 mM glucose + 10% FBS, 15.4 µM
[22] = RPMI 5 mM glucose + 10% FBS, 46.1 µM
[23] = RPMI 5 mM glucose + 10% dialyzed FBS, 0.000781 µM
[24] = RPMI 5 mM glucose + 10% dialyzed FBS, 0.00234 µM
[25] = RPMI 5 mM glucose + 10% dialyzed FBS, 0.00702 µM
[26] = RPMI 5 mM glucose + 10% dialyzed FBS, 0.0211 µM
[27] = RPMI 5 mM glucose + 10% dialyzed FBS, 0.0632 µM
[28] = RPMI 5 mM glucose + 10% dialyzed FBS, 0.19 µM
[29] = RPMI 5 mM glucose + 10% dialyzed FBS, 0.569 µM
[30] = RPMI 5 mM glucose + 10% dialyzed FBS, 1.71 µM
[31] = RPMI 5 mM glucose + 10% dialyzed FBS, 5.12 µM
[32] = RPMI 5 mM glucose + 10% dialyzed FBS, 15.4 µM
[33] = RPMI 5 mM glucose + 10% dialyzed FBS, 46.1 µM

Row | SMILES | cell viability [1] [%] | cell viability [2] [%] | cell viability [3] [%] | cell viability [4] [%] | cell viability [5] [%] | cell viability [6] [%] | cell viability [7] [%] | cell viability [8] [%] | cell viability [9] [%] | cell viability [10] [%] | cell viability [11] [%] | cell viability [12] [%] | cell viability [13] [%] | cell viability [14] [%] | cell viability [15] [%] | cell viability [16] [%] | cell viability [17] [%] | cell viability [18] [%] | cell viability [19] [%] | cell viability [20] [%] | cell viability [21] [%] | cell viability [22] [%] | cell viability [23] [%] | cell viability [24] [%] | cell viability [25] [%] | cell viability [26] [%] | cell viability [27] [%] | cell viability [28] [%] | cell viability [29] [%] | cell viability [30] [%] | cell viability [31] [%] | cell viability [32] [%] | cell viability [33] [%]
1 | CC(C)Nc1cc(C(F)(F)F)cc2nc(NC(=O)c3cccnc3)nn12 | 113 | 105 | 101 | 118 | 119 | 96.6 | 102 | 42.3 | 26.5 | 13.7 | 5.96 | 113 | 112 | 95.3 | 110 | 107 | 89.2 | 94.2 | 18 | 15.8 | 8.3 | 2.38 | 126 | 98.6 | 116 | 113 | 102 | 94 | 101 | 23.2 | 16.3 | 11.1 | 4.75
2 | CN(C)C(=O)c1ccc([S+](=O)([O-])c2ccc(NC(=O)[C@@](C)(O)C(F)(F)F)c(Cl)c2)cc1 | 98.1 | 105 | 104 | 112 | 110 | 104 | 129 | 120 | 118 | 116 | 80 | 95.3 | 122 | 110 | 109 | 124 | 108 | 112 | 123 | 120 | 24.3 | 4.66 | 99.3 | 98.8 | 108 | 102 | 107 | 88 | 103 | 111 | 111 | 72.8 | 20.9
3 | Cc1ncc(OC[C@@]2(c3cccc(F)c3)C[C@H]2C(=O)Nc2ccc(F)cn2)c(C)n1 | 75.3 | 84.5 | 97.6 | 96 | 95.3 | 91.7 | 105 | 96 | 98.3 | 98.7 | 78.3 | 113 | 111 | 102 | 104 | 103 | 133 | 136 | 51.1 | 97.3 | 88.4 | 104 | 85.3 | 107 | 98.1 | 90.8 | 100 | 104 | 108 | 118 | 122 | 108 | 82.6
4 | CCOC(=O)[C@H](CCc1ccccc1)N[C@@H](C)C(=O)N1CCC[C@H]1C(=O)O | 107 | 110 | 102 | 97.3 | 119 | 123 | 107 | 115 | 113 | 112 | 113 | 106 | 112 | 104 | 109 | 106 | 112 | 96.6 | 94.5 | 113 | 120 | 94.8 | 119 | 105 | 108 | 109 | 111 | 103 | 94.4 | 101 | 103 | 99.2 | 98.5
5 | C1CCC(C(CC2CCCCN2)C2CCCCC2)CC1 (stereo not given) | 82.6 | 92.2 | 94.9 | 98.3 | 104 | 110 | 93.5 | 96.9 | 118 | 54.1 | 7.7 | 94.4 | 122 | 93 | 113 | 116 | 117 | 110 | 112 | 111 | 45.1 | 19.6 | 85.7 | 93.9 | 91.7 | 85.5 | 100 | 86.6 | 96.8 | 110 | 89.9 | 37.7 | 34
6 | ClC1=CC(=CC=C1)N2CCN(CCCN3\N=C4\C=C/C=C\N4C3=O)CC2 | 79.3 | 107 | 107 | 112 | 121 | 130 | 127 | 131 | 140 | 131 | 145 | 117 | 126 | 123 | 138 | 140 | 138 | 146 | 157 | 150 | 165 | 127 | – | – | – | – | – | – | – | – | – | – | –
7 | C[S+](=O)([O-])N(Cc1ccco1)CC(O)Cn1c2ccccc2c2ccccc21 (stereo not given) | 106 | 88.5 | 100 | 100 | 99.5 | 98 | 92.8 | 97.6 | 55.4 | 56.5 | 18.5 | 115 | 113 | 127 | 119 | 122 | 116 | 106 | 109 | 63.3 | 59.1 | 10.7 | 91.8 | 99.5 | 108 | 96.7 | 102 | 106 | 91 | 78.4 | 46.3 | 35.9 | 8.62
